Data from patent US20210267203A1, “PESTICIDALLY ACTIVE AZOLE-AMIDE COMPOUNDS” (SYNGENTA PARTICIPATIONS AG, priority 2018, published 2021).

Legend:
Format in all cases: in vivo
[1] = tested on: Chilo suppressalis (Striped Rice Stemborer); experiment: Example B4: Chilo suppressalis (striped rice stemborer), artificial diet, L2 larvae; settings: 144 h, application rate 200 ppm, 6 days after infestation
Protocol: Example B4: Chilo suppressalis (Striped Rice Stemborer)
24-well microtiter plates with artificial diet were treated with aqueous test solutions prepared from 10,000 ppm DMSO stock solutions by pipetting. After drying, the plates were infested with L2 larvae (6-8 per well). The samples were assessed for mortality, anti-feeding effect, and growth inhibition in comparison to untreated samples 6 days after infestation. Control of Chilo suppressalis by a test sample is given when at least one of the categories (i.e. mortality, anti-feedant effect, and growth inhibition) is higher than the untreated sample.

[2] = tested on: Euschistus heros (Neotropical Brown Stink Bug); experiment: Example B2: Euschistus heros (neotropical brown stink bug), soybean leaves sprayed, N2 nymphs; settings: 120 h, application rate 200 ppm, 5 days after infestation, read-out: effect in at least one of the two categories (mortality or growth inhibition)
Protocol: Example B2: Euschistus heros (Neotropical Brown Stink Bug)
Soybean leaves on agar in 24-well microtiter plates were sprayed with aqueous test solutions prepared from 10,000 ppm DMSO stock solutions. After drying the leaves were infested with N2 nymphs. The samples were assessed for mortality and growth inhibition in comparison to untreated samples 5 days after infestation.
The following compounds gave an effect of at least 80% in at least one of the two categories (mortality or growth inhibition) at an application rate of 200 ppm: […]

[3] = tested on: Plutella xylostella (Diamondback Moth); experiment: Example B14: activity against Plutella xylostella (diamondback moth), 96-well artificial diet; settings: 216 h, application rate 500 ppm, 9 days after infestation
Method in brief: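 Diet in 96-well plates was treated with aqueous dilutions of 10,000 ppm DMSO stocks, dried, and infested with 30 eggs per well via a netted lid; hatching L1 larvae fed on the diet. Mortality scored 9 days after infestation.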

[4] = tested on: Myzus persicae (Green Peach Aphid); experiment: Example B13: activity against Myzus persicae (green peach aphid), 96-well sucrose solution; settings: 120 h, application rate 50 ppm, 5 days after infestation
Method in brief: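 Compounds, from 10,000 ppm DMSO stocks, mixed into sucrose solution in wells under stretched Parafilm, with aphids placed on the membrane in an inverted feeding setup. Mortality scored 5 days after infestation.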

[5] = tested on: Spodoptera littoralis (Egyptian Cotton Leaf Worm); experiment: Example B9: Spodoptera littoralis (Egyptian cotton leaf worm), cotton leaf discs sprayed, L1 larvae; settings: foliar, 72 h, application rate 200 ppm, 3 days after infestation
Method in brief: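 Leaf discs on agar sprayed with aqueous dilutions from 10,000 ppm DMSO stock, dried, then infested with five L1 larvae. Mortality, anti-feeding and growth inhibition scored against untreated samples 3 days after infestation; control counted when any category exceeds untreated.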

[6] = tested on: Plutella xylostella (Diamond Back Moth); experiment: Example B5: Plutella xylostella (diamond back moth), artificial diet, 24-well, eggs; settings: 192 h, application rate 200 ppm, 8 days after infestation, read-out: effect in at least one of the two categories (mortality or growth inhibition)
Method in brief: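 Artificial diet in 24-well plates treated with aqueous dilutions of 10,000 ppm DMSO stocks, dried, then infested with Plutella eggs. Mortality and growth inhibition scored against untreated samples 8 days after infestation; activity rated at 200 ppm application rate.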

[7] = tested on: Spodoptera littoralis (Egyptian Cotton Leaf Worm); experiment: Example B10: Spodoptera littoralis (Egyptian cotton leaf worm), uptake by lettuce roots from agar, eggs; settings: 144 h, test rate 12.5 ppm, lettuce root uptake, 6 days after infestation, read-out: effect in at least one of the three categories (mortality, anti-feeding, or growth inhibition)
Text: Example B10: Spodoptera littoralis (Egyptian Cotton Leaf Worm)
Test compounds were applied by pipette from 10,000 ppm DMSO stock solutions into 24-well plates and mixed with agar. Lettuce seeds were placed onto the agar and the multi well plate was closed by another plate which contained also agar. After 7 days the compound was absorbed by the roots and the lettuce grew into the lid plate. The lettuce leaves were then cut off into the lid plate. Spodoptera eggs were pipetted through a plastic stencil onto a humid gel blotting paper and the lid plate was closed with it. The samples were assessed for mortality, anti-feedant effect and growth inhibition in comparison to untreated samples 6 days after infestation.
The following compounds gave an effect of at least 80% in at least one of the three categories (mortality, anti-feeding, or growth inhibition) at a test rate of 12.5 ppm: […]

[8] = tested on: Myzus persicae (Green Peach Aphid); experiment: Example B8: Myzus persicae (green peach aphid), intrinsic activity; settings: 120 h, test rate 12 ppm, sucrose solution, 24-well, 5 days after infestation
Text: Example B8: Myzus persicae (Green Peach Aphid), Intrinsic Activity
Test compounds prepared from 10,000 ppm DMSO stock solutions were applied by pipette into 24-well microtiter plates and mixed with sucrose solution. The plates were closed with a stretched Parafilm. A plastic stencil with 24 holes was placed onto the plate and infested pea seedlings were placed directly on the Parafilm. The infested plate was closed with a gel blotting paper and another plastic stencil and then turned upside down. The samples were assessed for mortality 5 days after infestation.

[9] = tested on: Diabrotica Balteata (Corn Root Worm); experiment: Example B1: Diabrotica balteata (corn root worm), maize sprouts sprayed, L2 larvae; settings: 96 h, application rate 200 ppm, 4 days after infestation, read-out: effect in at least one of the two categories (mortality or growth inhibition)
Method in brief: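 Maize sprouts on agar sprayed with aqueous dilutions of 10,000 ppm DMSO stocks, dried, then infested with 6–10 L2 larvae per well. Mortality and growth inhibition scored against untreated samples 4 days after infestation; rates of 200 ppm.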

[10] = tested on: Myzus persicae (Green Peach Aphid); experiment: Example B6: Myzus persicae (green peach aphid), feeding/contact activity; settings: 144 h, application rate 200 ppm, 6 days after infestation
Protocol: Example B6: Myzus persicae (Green Peach Aphid):Feeding/Contact Activity
Sunflower leaf discs were placed onto agar in a 24-well microtiter plate and sprayed with aqueous test solutions prepared from 10,000 ppm DMSO stock solutions. After drying, the leaf discs were infested with an aphid population of mixed ages. The samples were assessed for mortality 6 days after infestation.

CC(c1ncnn1-c1ncccn1)N(C)C(=O)c1cc(C(F)(F)F)cc(C(F)(F)C2CC2)c1 (stereo not shown) [P58, 3-[cyclopropyl(difluoro)methyl]-N-methyl-N-[1-(2-pyrimidin-2-yl-1,2,4-triazol-3-yl)ethyl]-5-(trifluoromethyl)benzamide]
≥ 80%: percent control (mortality, anti-feedant effect or growth inhibition) at 200 ppm [1] | percent effect (mortality or growth inhibition) at 200 ppm [2] | mortality at 500 ppm [3] | mortality at 50 ppm [4] | percent control (mortality, anti-feedant effect or growth inhibition) at 200 ppm [5] | percent effect (mortality or growth inhibition) at 200 ppm [6] | percent effect (mortality, anti-feeding or growth inhibition) at 12.5 ppm [7] | mortality at 12 ppm [8] | percent effect (mortality or growth inhibition) at 200 ppm [9]

CC(NC(=O)c1cc(C(F)(F)F)cc(C(F)(F)C2CC2)c1)c1ncnn1-c1ncccn1 (stereo not shown) [P59, 3-[cyclopropyl(difluoro)methyl]-N-[1-(2-pyrimidin-2-yl-1,2,4-triazol-3-yl)ethyl]-5-(trifluoromethyl)benzamide]
≥ 80%: percent control (mortality, anti-feedant effect or growth inhibition) at 200 ppm [1] | percent effect (mortality or growth inhibition) at 200 ppm [2] | mortality at 500 ppm [3] | mortality at 50 ppm [4] | percent control (mortality, anti-feedant effect or growth inhibition) at 200 ppm [5] | percent effect (mortality or growth inhibition) at 200 ppm [6] | percent effect (mortality, anti-feeding or growth inhibition) at 12.5 ppm [7] | mortality at 12 ppm [8] | percent effect (mortality or growth inhibition) at 200 ppm [9]

CC(NC(=O)c1cc(C2CC2)nc(C(F)(F)F)c1)c1ncnn1-c1ncccn1 (stereo not shown) [P54, 2-cyclopropyl-N-[1-(2-pyrimidin-2-yl-1,2,4-triazol-3-yl)ethyl]-6-(trifluoromethyl)pyridine-4-carboxamide]
≥ 80%: percent effect (mortality or growth inhibition) at 200 ppm [2] | mortality at 500 ppm [3] | mortality at 50 ppm [4] | percent control (mortality, anti-feedant effect or growth inhibition) at 200 ppm [5] | percent effect (mortality or growth inhibition) at 200 ppm [6] | percent effect (mortality, anti-feeding or growth inhibition) at 12.5 ppm [7] | mortality at 12 ppm [8] | percent effect (mortality or growth inhibition) at 200 ppm [9]

CC(c1ncnn1-c1ncccn1)N(CC1CC1)C(=O)c1cc(C(F)(F)F)cc(C2(C)CC2C(F)(F)F)c1 (stereo not shown) [P43, N-(cyclopropylmethyl)-3-[1-methyl-2-(trifluoromethyl)cyclopropyl]-N-[1-(2-pyrimidin-2-yl-1,2,4-triazol-3-yl)ethyl]-5-(trifluoromethyl)benzamide]
≥ 80%: percent control (mortality, anti-feedant effect or growth inhibition) at 200 ppm [1] | mortality at 500 ppm [3] | mortality at 50 ppm [4] | percent control (mortality, anti-feedant effect or growth inhibition) at 200 ppm [5] | percent effect (mortality or growth inhibition) at 200 ppm [6] | percent effect (mortality, anti-feeding or growth inhibition) at 12.5 ppm [7] | mortality at 12 ppm [8] | percent effect (mortality or growth inhibition) at 200 ppm [9]

CC(NC(=O)c1cc(C2CC2(F)F)cc(C(F)(F)F)c1)c1ncnn1-c1ncccn1 (stereo not shown) [P87, 3-(2,2-difluorocyclopropyl)-N-[1-(2-pyrimidin-2-yl-1,2,4-triazol-3-yl)ethyl]-5-(trifluoromethyl)benzamide]
≥ 80%: percent control (mortality, anti-feedant effect or growth inhibition) at 200 ppm [1] | percent effect (mortality or growth inhibition) at 200 ppm [2] | mortality at 50 ppm [4] | percent control (mortality, anti-feedant effect or growth inhibition) at 200 ppm [5] | percent effect (mortality or growth inhibition) at 200 ppm [6] | percent effect (mortality, anti-feeding or growth inhibition) at 12.5 ppm [7] | mortality at 200 ppm [10] | mortality at 12 ppm [8] | percent effect (mortality or growth inhibition) at 200 ppm [9]
